Measured values: article PMC10175918 (Communications Biology, 2023)
Where two headings read alike, the source gives them in different places.

Experiments:
Test in all cases: TGFα-shedding assay-based GPCR screening with chimeric Gα subunit proteins
Assay type in all cases: cell-based
[1] = molecular target: T1, 348 GPCRs (Homo sapiens, UniProt P49146); conditions: 10µM, Favipiravir 100μM
T1 construct: expressed in transfected cells; host or cells: HEK293A
T1 sequence (P49146 1-381): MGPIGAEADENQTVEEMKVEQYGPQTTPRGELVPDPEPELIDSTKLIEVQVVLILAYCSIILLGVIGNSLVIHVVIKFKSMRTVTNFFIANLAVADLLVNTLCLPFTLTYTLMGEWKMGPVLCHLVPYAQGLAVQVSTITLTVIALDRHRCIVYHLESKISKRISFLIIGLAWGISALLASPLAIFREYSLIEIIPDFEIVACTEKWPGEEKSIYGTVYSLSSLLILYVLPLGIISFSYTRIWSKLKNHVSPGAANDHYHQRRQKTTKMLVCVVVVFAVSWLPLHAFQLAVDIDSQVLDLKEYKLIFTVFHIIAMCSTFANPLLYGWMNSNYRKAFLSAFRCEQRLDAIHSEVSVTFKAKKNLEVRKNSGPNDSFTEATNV

[2] = molecular target: T2, 348 GPCRs (Homo sapiens, UniProt P46663); conditions: 10µM, Favipiravir 100μM
T2 construct: expressed in transfected cells; host or cells: HEK293A
T2 sequence (P46663 1-353): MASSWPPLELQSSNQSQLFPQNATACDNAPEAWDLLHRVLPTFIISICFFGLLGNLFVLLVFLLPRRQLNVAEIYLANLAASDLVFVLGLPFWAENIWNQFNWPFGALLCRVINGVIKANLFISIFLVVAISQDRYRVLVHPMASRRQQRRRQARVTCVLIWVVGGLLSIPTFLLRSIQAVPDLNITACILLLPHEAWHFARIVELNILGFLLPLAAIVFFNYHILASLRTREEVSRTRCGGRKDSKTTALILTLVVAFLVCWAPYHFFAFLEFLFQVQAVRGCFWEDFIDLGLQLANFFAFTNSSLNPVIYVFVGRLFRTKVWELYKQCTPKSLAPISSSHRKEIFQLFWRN

[3] = molecular target: T3, 348 GPCRs (Homo sapiens, UniProt P51685); conditions: 10µM, Favipiravir 100μM
T3 construct: expressed in transfected cells; host or cells: HEK293A

[4] = molecular target: T4, 348 GPCRs (Homo sapiens, UniProt Q6QNK2); conditions: 10µM, Favipiravir 100μM
T4 construct: expressed in transfected cells; host or cells: HEK293A
T4 sequence (Q6QNK2 26-874): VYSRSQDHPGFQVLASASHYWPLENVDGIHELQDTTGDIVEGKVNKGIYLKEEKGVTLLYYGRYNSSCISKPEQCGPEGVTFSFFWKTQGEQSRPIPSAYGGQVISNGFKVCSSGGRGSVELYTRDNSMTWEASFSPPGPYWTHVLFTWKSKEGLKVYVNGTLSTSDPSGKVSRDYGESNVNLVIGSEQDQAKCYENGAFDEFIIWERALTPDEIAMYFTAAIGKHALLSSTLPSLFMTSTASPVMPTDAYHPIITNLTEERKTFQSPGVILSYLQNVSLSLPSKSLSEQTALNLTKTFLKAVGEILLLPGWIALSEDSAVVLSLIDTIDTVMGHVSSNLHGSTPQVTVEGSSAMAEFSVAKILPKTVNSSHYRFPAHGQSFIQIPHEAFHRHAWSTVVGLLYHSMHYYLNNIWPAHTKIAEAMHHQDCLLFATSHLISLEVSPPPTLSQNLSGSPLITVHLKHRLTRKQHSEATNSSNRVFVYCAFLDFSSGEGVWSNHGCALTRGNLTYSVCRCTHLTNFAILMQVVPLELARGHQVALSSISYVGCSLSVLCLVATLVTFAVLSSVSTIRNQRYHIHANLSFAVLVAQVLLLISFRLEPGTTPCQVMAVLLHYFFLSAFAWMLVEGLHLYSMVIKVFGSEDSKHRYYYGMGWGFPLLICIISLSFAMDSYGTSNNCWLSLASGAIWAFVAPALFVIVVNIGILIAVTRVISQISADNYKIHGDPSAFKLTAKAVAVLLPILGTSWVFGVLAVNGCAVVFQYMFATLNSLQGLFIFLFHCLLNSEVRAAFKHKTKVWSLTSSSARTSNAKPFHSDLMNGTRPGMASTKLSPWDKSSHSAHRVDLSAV

[5] = molecular target: T5, 348 GPCRs (Homo sapiens, UniProt P49238); conditions: GPCR CX3CR1 (chemokine (C-X3-C motif) receptor 1)
T5 construct: expressed in transfected cells; host or cells: HEK293A
T5 sequence (P49238 1-355): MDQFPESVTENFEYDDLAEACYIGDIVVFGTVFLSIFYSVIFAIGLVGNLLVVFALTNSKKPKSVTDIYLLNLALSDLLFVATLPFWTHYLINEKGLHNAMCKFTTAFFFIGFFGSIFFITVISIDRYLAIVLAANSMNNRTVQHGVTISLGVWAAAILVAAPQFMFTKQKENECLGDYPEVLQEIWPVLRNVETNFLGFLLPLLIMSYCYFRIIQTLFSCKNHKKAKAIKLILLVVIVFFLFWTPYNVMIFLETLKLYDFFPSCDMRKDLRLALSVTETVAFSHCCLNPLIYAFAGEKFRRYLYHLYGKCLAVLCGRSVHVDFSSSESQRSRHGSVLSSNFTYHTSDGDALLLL

[6] = molecular target: 348 GPCRs (Homo sapiens, UniProt P28223); conditions: 10µM, Favipiravir 100μM
[7] = molecular target: T6, 348 GPCRs (Homo sapiens, UniProt P21462); conditions: 10µM, Favipiravir 100μM
T6 sequence (P21462 1-350): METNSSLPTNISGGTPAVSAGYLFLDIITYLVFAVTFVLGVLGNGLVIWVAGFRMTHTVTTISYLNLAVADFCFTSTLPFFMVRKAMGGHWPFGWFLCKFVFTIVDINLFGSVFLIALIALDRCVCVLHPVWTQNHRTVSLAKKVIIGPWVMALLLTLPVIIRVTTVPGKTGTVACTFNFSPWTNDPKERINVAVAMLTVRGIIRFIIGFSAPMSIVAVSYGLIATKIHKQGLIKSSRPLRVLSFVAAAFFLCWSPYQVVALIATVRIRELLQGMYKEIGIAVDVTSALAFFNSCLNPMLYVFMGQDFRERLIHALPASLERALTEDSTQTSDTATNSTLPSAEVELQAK

[8] = NPY2R (neuropeptide Y receptor Y2), read-out: % GPCR activation compared to TPA
[9] = B1 (bradykinin receptor B1), read-out: % GPCR activation compared to TPA
[10] = CCR8 (C-C motif chemokine receptor 8), read-out: % GPCR activation compared to TPA
[11] = GPR133 (G protein-coupled receptor 133), read-out: % GPCR activation compared to TPA
[12] = 5-HT2A (5-hydroxytryptamine receptor 2A), read-out: % GPCR activation compared to TPA
[13] = FPR1 (formyl peptide receptor 1), read-out: % GPCR activation compared to TPA
[14] = read-out: % GPCR activation compared to TPA, NPY2R (neuropeptide Y receptor Y2)
[15] = read-out: % GPCR activation compared to TPA, B1 (bradykinin receptor B1)
[16] = read-out: % GPCR activation compared to TPA, CCR8 (C-C motif chemokine receptor 8)
[17] = read-out: % GPCR activation compared to TPA, GPR133 (G protein-coupled receptor 133)
[18] = read-out: % GPCR activation compared to TPA, 5-HT2A (5-hydroxytryptamine receptor 2A)
[19] = read-out: % GPCR activation compared to TPA, FPR1 (formyl peptide receptor 1)

348 GPCRs (Homo sapiens, UniProt P28223), sequence (P28223 whole entry): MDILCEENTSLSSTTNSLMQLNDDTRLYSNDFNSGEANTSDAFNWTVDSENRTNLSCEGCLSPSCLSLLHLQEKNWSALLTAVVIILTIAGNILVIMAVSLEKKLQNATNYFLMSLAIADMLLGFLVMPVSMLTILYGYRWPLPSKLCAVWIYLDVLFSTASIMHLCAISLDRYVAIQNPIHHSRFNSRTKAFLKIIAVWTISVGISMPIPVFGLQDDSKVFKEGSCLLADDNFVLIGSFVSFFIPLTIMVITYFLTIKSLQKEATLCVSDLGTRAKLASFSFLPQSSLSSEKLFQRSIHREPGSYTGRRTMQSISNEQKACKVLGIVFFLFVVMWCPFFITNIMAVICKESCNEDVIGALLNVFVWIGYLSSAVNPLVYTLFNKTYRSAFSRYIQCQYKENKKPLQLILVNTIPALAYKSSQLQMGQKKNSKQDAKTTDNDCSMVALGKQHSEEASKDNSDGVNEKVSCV
T3 sequence (P51685 whole entry): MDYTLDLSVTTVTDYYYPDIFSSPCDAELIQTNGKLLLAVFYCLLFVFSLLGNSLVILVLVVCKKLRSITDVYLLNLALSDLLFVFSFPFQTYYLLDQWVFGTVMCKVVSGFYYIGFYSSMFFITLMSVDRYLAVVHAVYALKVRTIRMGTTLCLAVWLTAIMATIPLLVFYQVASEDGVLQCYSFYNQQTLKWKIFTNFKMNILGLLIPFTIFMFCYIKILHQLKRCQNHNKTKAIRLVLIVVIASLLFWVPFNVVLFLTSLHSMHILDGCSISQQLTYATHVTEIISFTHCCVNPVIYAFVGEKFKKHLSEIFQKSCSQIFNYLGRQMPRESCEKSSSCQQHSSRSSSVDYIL

SMILES	activation at 100 µM [1, 8] [%]	activation at 10 µM [2, 9] [%]	activation at 10 µM [3, 10] [%]	activation at 100 µM [4, 11] [%]	activation at 100 µM [6, 12] [%]	activation at 100 µM [7, 13] [%]	% GPCR activation compared to TPA ([5]; 100μM) [%]	% GPCR activation compared to TPA ([5]; 10µM) [%]	activation at 100 µM [1, 14] [%]	activation at 10 µM [2, 15] [%]	activation at 10 µM [3, 16] [%]	activation at 100 µM [4, 17] [%]	activation at 100 µM [6, 18] [%]	activation at 100 µM [7, 19] [%]
NC(=O)c1nc(F)cnc1O [favipiravir, 6-fluoro-3-hydroxy-2-pyrazinecarboxamide]	-0.896	5.17	-0.669	2.84	2.2	-5.47	0.06344							
CCC(CC)COC(=O)[C@H](C)N[P@](=O)(OC[C@H]1O[C@@](C#N)(c2ccc3c(N)ncnn23)[C@H](O)[C@@H]1O)Oc1ccccc1 [remdesivir]								2.076	1.07	8.43	0.425	3.45	4.22	-4.31
CC(C)OC(=O)[C@H](C)N[P@](=O)(OC[C@H]1O[C@@H](n2ccc(=O)[nH]c2=O)[C@](C)(F)[C@@H]1O)Oc1ccccc1 [sofosbuvir]								0.2471	-5.23	-5	-2.89	-82.3	-1.66	-0.986

Second part, led by results:

activation at 100 µM [1, 8] [%]	activation at 10 µM [2, 9] [%]	activation at 10 µM [3, 10] [%]	activation at 100 µM [4, 11] [%]	activation at 100 µM [6, 12] [%]	activation at 100 µM [7, 13] [%]	% GPCR activation compared to TPA ([5]; 100μM) [%]	SMILES	% GPCR activation compared to TPA ([5]; 10µM) [%]	activation at 100 µM [1, 14] [%]	activation at 10 µM [2, 15] [%]	activation at 10 µM [3, 16] [%]	activation at 100 µM [4, 17] [%]	activation at 100 µM [6, 18] [%]	activation at 100 µM [7, 19] [%]
0.462	1.31	-5.03	3.32	-1.21	-4.1		N#C[C@@]1(c2ccc3c(N)ncnn23)O[C@H](CO)[C@@H](O)[C@H]1O [GS441524]	-0.5209						
-4.76	-3.36	-2.68	-83.1	-0.697	-0.204		CC(C)C(=O)OC[C@H]1O[C@@H](n2ccc(NO)nc2=O)[C@H](O)[C@@H]1O [molnupiravir]	-0.5795						
